From publication PMC7868322, “Rational Design of A Novel Small-Molecule HIV-1 Inactivator Targeting Both gp120 and gp41 of HIV-1” (Frontiers in Pharmacology, 2021) come the findings set out here.

Where two headings read alike, the source gives them in different places.

For one series, the system named is HIV-1 IIIB. Kind of series: Inactivation of cell-free HIV-1 virions (PEG-6000 precipitation, p24 ELISA). The class given is cell-based. The following applies: Human immunodeficiency virus 1, IIIB; cell-free virions, 1 h at 4°C, PEG-6000 precipitation; read-out: EC50, inactivation of HIV-1 IIIB. A general note: An ELISA detects its analyte on a solid surface through an enzyme-linked reagent.

Series [1] has as its target T1, 6HB formation between N36 and C34 (Human immunodeficiency virus type 1 group M subtype B, UniProt P04578).
T1 construct: purchased NIH AIDS Reagent Program
The experiment in a line: N-PAGE inhibition of six-helix bundle formation. The class given is biochemical, HIV-1. The following applies: peptides 40 μM final. The method, then: The sample was mixed with Tris-glycine native sample buffer and then loaded onto the 18% Tris-glycine gel. Gel electrophoresis was carried out with 125 V constant voltage at room temperature for 3 h.

A further series is described as follows: Cytotoxicity (CCK-8). In kind it is cell-based. The conditions noted are these: human. The method, then: Cell viability was detected following the instructions in the protocol provided in the cell counting kit-8 (CCK-8; Dojindo Molecular Technologies, Gaithersburg, MD, USA) as previously described ([Yang et al., 2018]). Briefly, MT-2 cells and CEMx174 517 5.25 M7 cells (3 × 10^4/well) were incubated with compounds at different concentrations at 37°C for 48 h. Then, the supernatant was discarded, and CCK8 diluted 10 times with fresh medium was added (200 μL/well). After 2–6 h of incubation at 37°C, the absorbance at 450 nm was measured using a microplate reader (Tecan, Männedorf, Switzerland).

The test system of the next series is 93/BR/020 (F, R5 and X4). The experiment in a line: Inhibition of HIV-1 clinical virus infection. The class given is cell-based. The conditions noted are these: Human immunodeficiency virus 1; HIV-1 clinical virus 93/BR/020 (F, R5 and X4); means ± SD.
Another series deals with WT (NL4-3 D36G). The class given is cell-based, HIV-1. The following applies: T20-resistant virus panel, means ± SD.
Series [2] concerns T2635-resistant virus K90E N126K. The class given is cell-based, HIV-1. The following applies: means ± SD.
For series [3], the system named is T2635-resistant virus H3C. The class given is cell-based, HIV-1. The conditions noted are these: T2635-resistant virus H3C (A6V L33S Q66R N126K H132Q E136G); means ± SD.
For another series, the system named is D36G (NL4-3 WT). The class given is cell-based, HIV-1. The conditions noted are these: inactivation of cell-free virions, T20-resistant panel D36G (NL4-3 WT); means ± SD.
Series [4] has as its system T2635-resistant virus Q66R N113E. In kind it is cell-based, HIV-1. The conditions noted are these: inactivation of cell-free virions, means ± SD.
A further series has as its target HIV-1 IIIB gp120 (Human immunodeficiency virus type 1 group M subtype B, UniProt P04578). The experiment in a line: ELISA inhibition of gp120 CD4bs-targeting mAbs binding to gp120. More on the design: polystyrene plates were coated with 50 µL of HIV-1 IIIB gp120. The protocol: Flow cytometry was used to detect compounds that competed with gp120 CD4bs-targeting mAbs for binding to gp120. In brief, 100 µL of FD016 at a concentration of 100 µM or PBS was first incubated with CHO-WT cells expressing HIV-1 HXB2 gp120 for 30 min at room temperature, and then gp120 CD4bs-targeting mAbs (5 μg/mL, 100 µL) and FITC-labeled goat anti-human secondary antibody were added successively. After three washes, the cells were analyzed with flow cytometry. ELISA was carried out to detect the activity of compounds that inhibit the binding of soluble CD4 (sCD4) or gp120 CD4bs-targeting mAbs to gp120 as previously described ([Si et al., 2004]; [Curreli et al., 2014]). Briefly, for sCD4 and gp120 binding, 50 µL of HIV-1 IIIB gp120 at 0.5 μg/mL was captured on polystyrene plate coated with sheep anti-gp120 antibody D7324 (Aalto Bio Reagents). sCD4 (ImmunoDiagnostics, Inc.) at 200 ng/mL was then added in the presence of an equal volume of different concentrations of compounds or PBS and incubated at 37°C for 1 h. Next, rabbit anti-sCD4 IgG (ImmunoDiagnostics, Inc.) at 250 ng/mL was added and incubated at 37°C for another 1 h, followed by goat anti-rabbit IgG-biotin (Invitrogen), streptavidin-horseradish peroxidase (Invitrogen). For gp120 CD4bs-targeting mAbs and gp120 binding, polystyrene plates were coated with 50 µL of HIV-1 IIIB gp120 (2 μg/mL in 0.1 mol/L sodium bicarbonate buffer (pH 8.6)) at 4°C overnight and then blocked with PBS containing 2% BSA at 37°C for 2 h. Next, gp120 CD4bs-targeting mAbs at 2 μg/mL were added in the presence of an equal volume of FD028 at different concentrations and incubated at 37°C for 1 h. Horseradish peroxidase (HRP)-labeled goat-anti-human IgG (Sigma-Aldrich) was added sequentially. After adding 3,3′,5,5′-tetramethylbenzidine chromogen substrate and sulfuric acid, the absorbance at 450 nm (A450) was recorded using a Microplate Reader (Tecan, Männedorf, Switzerland).

What is called EC50 is the concentration that produces a half-maximal response. By IC50 is commonly meant the concentration that gives 50% inhibition. The term CC50 denotes the concentration that lowers cell viability or growth by half.

As to `CC1(C)CC(NC(=O)C(=O)Nc2ccc(Cl)c(F)c2)CC(C)(C)N1C(=O)COc1ccc(CCN2C(=O)/C(=C/c3ccc(-c4ccc(Cl)c(C(=O)O)c4)o3)SC2=S)cc1` [FD028, (Z)-2-Chloro-5-(5-((3-(4-(2-(4-(2-((4-Chloro-3-Fluorophenyl)amino)-2-oxoacetamido)-2,2,6,6-Tetramethylpiperidin-1-yl)-2-oxoethoxy)phenethyl)-4-oxo-2-Thioxothiazolidin-5-ylidene)methyl)furan-2-yl)benzoic Acid], the EC50 in the series with HIV-1 IIIB amounted to 710 nM; with D36G (NL4-3 WT), 410 ± 20 nM; in [4] it was 360 ± 30 nM. In addition, the IC50 in [1] was 100000 to 200000 nM; with 93/BR/020 (F, R5 and X4) it was 380 ± 30 nM; with WT (NL4-3 D36G) it was 170 ± 60 nM; in series [2] it was 460 ± 110 nM; in [3] it was 270 ± 60 nM; at HIV-1 IIIB gp120 (ELISA, mAb 2G12, read-out: IC50, inhibition of 2G12 binding to gp120) it was 1420 nM. For the same molecule, the IC50 was 700 nM at HIV-1 IIIB gp120 (ELISA, mAb 654-30D, read-out: IC50, inhibition of 654-30D binding to gp120); 460 nM at HIV-1 IIIB gp120 (ELISA, mAb B12, read-out: IC50, inhibition of B12 binding to gp120); 770 nM on HIV-1 IIIB gp120 (ELISA, mAb HJ16, read-out: IC50, inhibition of HJ16 binding to gp120); 1230 nM at HIV-1 IIIB gp120 (ELISA, mAb N6, read-out: IC50, inhibition of N6 binding to gp120); 420 nM on HIV-1 IIIB gp120 (ELISA, mAb VRC01, read-out: IC50, inhibition of VRC01 binding to gp120); 420 to 1420 nM on HIV-1 IIIB gp120 (ELISA, range over the mAbs, read-out: IC50, inhibition of binding of gp120 to different gp120 CD4bs-targeting mAbs). This molecule had an IC50 on HIV-1 IIIB gp120 (IC50, inhibition of 3BNC117 binding to gp120, ELISA, mAb 3BNC117) of 520 nM. The CC50 at 48 h is 18200 nM in “Cytotoxicity (CCK-8)” (CEMx174 5.25 M7 cells, read-out: CC50, CEMx174 5.25 M7 cell) and 29500 nM in “Cytotoxicity (CCK-8)” (MT-2 cells, read-out: CC50, MT-2 cell).
